Laboratory results taken from patent publication US9908868B2, “Isoindolinone compounds as GPR119 modulators for the treatment of diabetes, obesity, dyslipidemia and related disorders” (SANOFI, priority 2014, dated 2018).

biological target: T1, human GPR119 (Homo sapiens, UniProt Q8TDV5); assay: Functional cellular assay measuring GPR119-mediated cAMP release (HTRF) in HEK-293 cells stably expressing recombinant human GPR119; format: cell-based; conditions: cAMP response, cell line expressing human GPR119, 30 minutes at room temperature
T1 construct: expressed in transfected cells
T1 sequence (Q8TDV5 1-335): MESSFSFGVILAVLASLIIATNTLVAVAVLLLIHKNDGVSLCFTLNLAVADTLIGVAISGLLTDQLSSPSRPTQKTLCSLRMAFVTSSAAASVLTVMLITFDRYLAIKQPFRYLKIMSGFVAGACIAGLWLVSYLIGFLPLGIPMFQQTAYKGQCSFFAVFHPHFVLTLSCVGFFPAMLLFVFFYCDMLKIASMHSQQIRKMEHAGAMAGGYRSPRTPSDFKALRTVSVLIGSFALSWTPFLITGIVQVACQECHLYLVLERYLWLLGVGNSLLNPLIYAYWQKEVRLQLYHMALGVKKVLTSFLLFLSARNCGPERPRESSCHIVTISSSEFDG
Experimental: Functional Cellular Assays Measuring GPR119-Mediated cAMP Release
Compounds of the invention, which are agonists of GPR119, were characterized by functional assays measuring the cAMP response of HEK-293 cell lines stably expressing recombinant GPR119 from man, mouse or rat, or by using a hamster cell line HIT-T15 expressing GPR119 endogenously. The cAMP content was determined using a kit based on homogenous time-resolved fluorescence (HTRF) from Cisbio Corp. (cat. no. 62AM4PEC). For preparation, cells were split into T175 culture flasks and grown to near confluency in medium (DMEM/10% FCS for HEK-293 cells, and F-12K medium/10% horse serum/2.5% FCS for HIT-T15 cells, respectively). Medium was then removed and cells washed with PBS lacking calcium and magnesium ions, followed by proteinase treatment with accutase (Sigma-Aldrich, cat. no. A6964). Detached cells were washed and resuspended in assay buffer (1×HBSS; 20 mM HEPES, 0.1% BSA, 2 mM IBMX) and cellular density determined. They were then diluted to 400000 cells/mL and 25 μL-aliquots dispensed to the wells of 96-well plates. For measurement, 25 μL of test compound in assay buffer was added and incubated for 30 minutes at room temperature. After addition of HTRF reagents diluted in lysis buffer, the plates were incubated for 1 hour, followed by measuring the fluorescence ratio at 665 vs. 620 nm. Potency of the agonists was quantified by determining the concentrations that caused 50% of the maximal response/activation (EC50). See Table 7 for exemplary data obtained using the cell line expressing human GPR119.

Row | EC50 [nM] | SMILES
1 | 1060 | CC(=O)N1CCN(c2ccc(O[C@@H]3CCN(c4ccc5c(c4)C(=O)N(CC(=O)N(C)C)C5)C3=O)cc2)CC1 [Example 2-26, 2-[6-[(3R)-3-[4-(4-acetylpiperazin-1-yl)phenoxy]-2-oxo-pyrrolidin-1-yl]-1-oxo-isoindolin-2-yl]-N,N-dimethyl-acetamide]
2 | 297 | CN(CCO)C(=O)CN1Cc2ccc(N3CC[C@@H](Oc4ccc(Oc5ccc(F)cc5)nc4)C3=O)cc2C1=O [Example 4-12, 2-[6-[(3R)-3-[[6-(4-fluorophenoxy)-3-pyridyl]oxy]-2-oxo-pyrrolidin-1-yl]-1-oxo-isoindolin-2-yl]-N-(2-hydroxyethyl)-N-methyl-acetamide]
3 | 346 | CN(C)C(=O)CN1Cc2c(F)cc(N3CC[C@@H](Oc4ccc(OC5CC5)nc4)C3=O)cc2C1=O [Example 1-21, 2-[6-[(3R)-3-[[6-(cyclopropoxy)-3-pyridyl]oxy]-2-oxo-pyrrolidin-1-yl]-4-fluoro-1-oxo-isoindolin-2-yl]-N,N-dimethyl-acetamide]
4 | 1040 | CN(C)C(=O)CN1Cc2ccc(N3CC[C@@H](Oc4ccc(OC5CC5)nc4)C3=O)cc2C1=O [Example 1-37, 2-[6-[(3R)-3-[[6-(cyclopropoxy)-3-pyridyl]oxy]-2-oxo-pyrrolidin-1-yl]-1-oxo-isoindolin-2-yl]-N,N-dimethyl-acetamide]
5 | 366 | CN(C)C(=O)C1NC(=O)c2cc(N3CC[C@@H](Oc4ccc(OCC5CC5)nc4)C3=O)ccc2N1C (single isomer, unassigned) [Example 1-42]
6 | 449 | CN(C)C(=O)c1nc2ccc(N3CC[C@@H](Oc4ccc(OCC5CC5)nc4)C3=O)cc2c(=O)n1C [Example 1-43, 6-[(3R)-3-[[6-(cyclopropylmethoxy)-3-pyridyl]oxy]-2-oxo-pyrrolidin-1-yl]-N,N,3-trimethyl-4-oxo-quinazoline-2-carboxamide]
7 | 424 | CC1(C(=O)c2ccc(O[C@@H]3CCN(c4ccc5c(c4)C(=O)N(CC(N)=O)C5)C3=O)cn2)CC1 [Example 2-49, 2-[6-[(3R)-3-[[6-(1-methylcyclopropanecarbonyl)-3-pyridyl]oxy]-2-oxo-pyrrolidin-1-yl]-1-oxo-isoindolin-2-yl]acetamide]
8 | 15 | CCOC(=O)CN1Cc2ccc(N3CC[C@@H](Oc4ccc(OCC5CC5)nc4)C3=O)cc2C1=O [Example 1-29, ethyl 2-[6-[(3R)-3-[[6-(cyclopropylmethoxy)-3-pyridyl]oxy]-2-oxo-pyrrolidin-1-yl]-1-oxo-isoindolin-2-yl]acetate]
9 | 330 | CN(C)C(=O)CN1Cc2ccc(N3CC[C@@H](Oc4ccc(C(=O)C5(C)CC5)nc4)C3=O)cc2C1=O [Example 2-59, N,N-dimethyl-2-[6-[(3R)-3-[[6-(1-methylcyclopropanecarbonyl)-3-pyridyl]oxy]-2-oxo-pyrrolidin-1-yl]-1-oxo-isoindolin-2-yl]acetamide]
10 | 85 | CN(C)C(=O)CN1Cc2ccc(N3CC[C@@H](Oc4ccc(Oc5ccc(F)cc5)nc4)C3=O)cc2C1=O [Example 2-14, 2-[6-[(3R)-3-[[6-(4-fluorophenoxy)-3-pyridyl]oxy]-2-oxo-pyrrolidin-1-yl]-1-oxo-isoindolin-2-yl]-N,N-dimethyl-acetamide]
11 | 43 | O=C(CN1Cc2ccc(N3CC[C@@H](Oc4ccc(OCC(F)(F)F)nc4)C3=O)cc2C1=O)N1CCCC1 [Example 4-40, 2-(2-oxo-2-pyrrolidin-1-yl-ethyl)-6-[(3R)-2-oxo-3-[[6-(2,2,2-trifluoroethoxy)-3-pyridyl]oxy]pyrrolidin-1-yl]isoindolin-1-one]
12 | 288 | CCOc1ccc(O[C@@H]2CCN(c3cc(F)c4c(c3)C(=O)N(CC(=O)N(CC)CC)C4)C2=O)cn1 [Example 4-14, 2-[6-[(3R)-3-[(6-ethoxy-3-pyridyl)oxy]-2-oxo-pyrrolidin-1-yl]-4-fluoro-1-oxo-isoindolin-2-yl]-N,N-diethyl-acetamide]
13 | 251 | CN(C)C(=O)CN1Cc2ccc(N3CC[C@@H](Oc4ccc(C(=O)C5CC5)nc4)C3=O)cc2C1=O [Example 2-58, 2-[6-[(3R)-3-[[6-(cyclopropanecarbonyl)-3-pyridyl]oxy]-2-oxo-pyrrolidin-1-yl]-1-oxo-isoindolin-2-yl]-N,N-dimethyl-acetamide]
14 | 62 | COCCNC(=O)CN1Cc2c(F)cc(N3CC[C@@H](Oc4ccc(OCCC5CC5)nc4)C3=O)cc2C1=O [Example 4-20, 2-[6-[(3R)-3-[[6-(2-cyclopropylethoxy)-3-pyridyl]oxy]-2-oxo-pyrrolidin-1-yl]-4-fluoro-1-oxo-isoindolin-2-yl]-N-(2-methoxyethyl)acetamide]
15 | 8510 | CC(C)(C)N1Cc2c(F)cc(N3CC[C@@H](Oc4ccc(OCC5CC5)nc4)C3=O)cc2C1=O [Example 1-33, 2-tert-butyl-6-[(3R)-3-[[6-(cyclopropylmethoxy)-3-pyridyl]oxy]-2-oxo-pyrrolidin-1-yl]-4-fluoro-isoindolin-1-one]
16 | 106 | CN(C)C(=O)CN1Cc2ncc(N3CC[C@@H](Oc4ccc(OCC(F)(F)F)nc4)C3=O)cc2C1=O [Example 1-49, N,N-dimethyl-2-[5-oxo-3-[(3R)-2-oxo-3-[[6-(2,2,2-trifluoroethoxy)-3-pyridyl]oxy]pyrrolidin-1-yl]-7H-pyrrolo[3,4-b]pyridin-6-yl]acetamide]
17 | 1050 | O=C(O)CN1Cc2c(F)cc(N3CC[C@@H](Oc4ccc(OCC5CC5)nc4)C3=O)cc2C1=O [Example 3-01, 2-[6-[(3R)-3-[[6-(cyclopropylmethoxy)-3-pyridyl]oxy]-2-oxo-pyrrolidin-1-yl]-4-fluoro-1-oxo-isoindolin-2-yl]acetic acid]
18 | 337 | CN(C)C(=O)CN1Cc2ccc(N3CC[C@@H](Oc4ccc(-c5csnn5)cc4)C3=O)cc2C1=O [Example 2-40, N,N-dimethyl-2-[1-oxo-6-[(3R)-2-oxo-3-[4-(thiadiazol-4-yl)phenoxy]pyrrolidin-1-yl]isoindolin-2-yl]acetamide]
19 | 39 | O=C(CN1Cc2ccc(N3CC[C@@H](Oc4ccc(OCC(F)(F)F)nc4)C3=O)cc2C1=O)N1CCC1 [Example 4-42, 2-[2-(azetidin-1-yl)-2-oxo-ethyl]-6-[(3R)-2-oxo-3-[[6-(2,2,2-trifluoroethoxy)-3-pyridyl]oxy]pyrrolidin-1-yl]isoindolin-1-one]
20 | 313 | COC(=O)CC1c2ccc(N3CC[C@@H](Oc4ccc(OCC5CC5)nc4)C3=O)cc2C(=O)N1C (stereo partly drawn) [Example 1-05, methyl 2-[5-[(3R)-3-[[6-(cyclopropylmethoxy)-3-pyridyl]oxy]-2-oxo-pyrrolidin-1-yl]-2-methyl-3-oxo-isoindolin-1-yl]acetate]
21 | 104 | C[S+]([O-])CN1Cc2ncc(N3CC[C@@H](Oc4ccc(OCC(F)(F)F)nc4)C3=O)cc2C1=O (stereo partly drawn) [Example 1-63, 6-(methylsulfinylmethyl)-3-[(3R)-2-oxo-3-[[6-(2,2,2-trifluoroethoxy)-3-pyridyl]oxy]pyrrolidin-1-yl]-7H-pyrrolo[3,4-b]pyridin-5-one]
22 | 443 | O=C(O)CN1Cc2ccc(N3CC[C@@H](Oc4ccc(OCC5CC5)nc4)C3=O)cc2C1=O [Example 3-02, 2-[6-[(3R)-3-[[6-(cyclopropylmethoxy)-3-pyridyl]oxy]-2-oxo-pyrrolidin-1-yl]-1-oxo-isoindolin-2-yl]acetic acid]
23 | 202 | CN(C)C(=O)CN1Cc2ccc(N3CC[C@@H](Oc4ccc(C(=O)C5CC5)cc4)C3=O)cc2C1=O [Example 2-48, 2-[6-[(3R)-3-[4-(cyclopropanecarbonyl)phenoxy]-2-oxo-pyrrolidin-1-yl]-1-oxo-isoindolin-2-yl]-N,N-dimethyl-acetamide]
24 | 56 | CN(C)C(=O)CN1Cc2ccc(N3CC[C@@H](Oc4ccc(CCCC5CC5)nc4)C3=O)cc2C1=O [Example 2-02, 2-[6-[(3R)-3-[[6-(3-cyclopropylpropyl)-3-pyridyl]oxy]-2-oxo-pyrrolidin-1-yl]-1-oxo-isoindolin-2-yl]-N,N-dimethyl-acetamide]
25 | 47 | CN(C)C(=O)CN1Cc2ccc(N3CC[C@@H](Oc4ccc(Oc5ccc(F)cc5)cc4)C3=O)cc2C1=O [Example 2-16, 2-[6-[(3R)-3-[4-(4-fluorophenoxy)phenoxy]-2-oxo-pyrrolidin-1-yl]-1-oxo-isoindolin-2-yl]-N,N-dimethyl-acetamide]
26 | 197 | O=C(CN1Cc2ccc(N3CC[C@@H](Oc4ccc(OCC5CC5)nc4)C3=O)cc2C1=O)N1CC(O)C1 [Example 4-04, 6-[(3R)-3-[[6-(cyclopropylmethoxy)-3-pyridyl]oxy]-2-oxo-pyrrolidin-1-yl]-2-[2-(3-hydroxyazetidin-1-yl)-2-oxo-ethyl]isoindolin-1-one]
